US20250276066A1, “METHODS, COMPOSITIONS AND COMPOUNDS FOR TREATING AGE-RELATED DISEASES AND CONDITIONS” (GERO PTE. LTD., priority 2021, published 2025)
Like-named read-outs stand apart in the source and are kept apart here.

How the values were obtained:
C. elegans = C. elegans lifespan screening (survival) assay; format: in vivo, Caenorhabditis elegans; settings: for Mean LS ext., %: mean lifespan extension vs control, doses (uM); for Mean LS*: mean lifespan, dose uM: Panobinostat 1, Entinostat 10, Topotecan 5, PI-103 10, PHA-793887 10, Triptolide 10, KU-0063794 10, Trichostatin A 2, control 22.2 d
Excerpt: • 1. […] Then, with the help of linear gene-wise regression, we identified the transcriptomic aging signature, the list of genes that have statistically significant association with age rescaled by lifespan (the first list). • 3. Genes in the aging signature that have positive correlation with age rescaled by lifespan are over-expressed in late life of the animals, and if a gene's correlation is negative its gene expression decreases with age. • 4. […] The identified aging signature represents a vector of the aging-related changes of gene expression. […] This was done by projecting out all gene expression changes along the aging signature. • 6. After that, by gene-wise linear regression, we identified the list of genes that had statistically significant correlation with lifespan of long-lived strains. That list represents the PI3K-null signature. Genes in the PI3K-null signature that have positive correlation with lifespan are over-expressed in long-lived strains, and vise versa, genes with negative correlations have lower gene expression levels in long-lived mutants with respect to the control lines. • 7. […] Therefore, we would affect the aging process and either slow-down it or reverse it. • 8. We combined those lists, and identified the lists of their human orthologs. • 9. The inhibition of these genes or/and the proteins translated from those genes in humans will also produce life-extending effects. • 10. The predictive value of the aging signature was previously experimentally tested in paper. Along the lines of paper, to test the predictive value of the PI3K-null signature, we identified novel life-extending pharmacological interventions by comparing this signatures with gene expression profile changes in response to pharmacologic perturbations from the Connectivity Map (CMAP) database. Using the PI3K-null signature, we predicted perturbagen-compounds opposing the transcriptomic signature distinguishing long-lived C. elegans mutant strains with a slow aging rate from short-lived strains with a fast aging rate (see Table […] and T1b). To eliminate the confounding effect of different biological ages of nematodes in experimental cohorts, we applied the algorithm developed earlier. From the top of predicted compounds, we selected 8 compounds for a follow-up lifespan screening in C. elegans assay (see Figure F1, Table T2). • 11. We successfully tested the selected compounds in C. elegans survival assay (see Figure F1, Table T2). All 8 compounds produced a significant lifespan extension effect (according to the Log-rank Mantel-Cox method, all results are with p<0.05). Therefore, we experimentally validated the PI3K-null signature's pipeline for the identification of new life-extending compounds. • 12. […] CDK7, CHEK2, CAPN1, CTSB, HSP90AB1, HSP90AA1, HSPA5, NFKB1, NPC1, PABPC1, ABCB11, ABCB1, PLK1, PLK3, ADRA2A, ADRA2C, ADRA2B, TUBB6, SENP8, SENP6, SENP7, MMP14, MMP13, MMP8, MMP3, MMP1, MAPKAPK2, CTSL, CTSK, CTSS, ATXN2, TBXAS1, CREBBP, PDGFRA, FLT4, FLT1, KDR, PDGFRB, FLT3, KIT, CSF1R, IKBKB, IKBKE, PGGT1B, FAAH, GFER, MAPK14, MAPK12, PRKAA1, ABCG2, ADAM17, BACE2, BACE1, TUBB6, CA7, CA2, CA1, CA5A, CA12, CA9, CA4, CTSB, FEN1, HDAC1, HDAC2, HDAC3, CBX1, SLC6A4, SLC6A2, SLC6A3, PPARD, PPARG, PPARA, PSEN2, HTR7, ADRA1B, SMN2, FYN, SRC, LCK, LYN, TARDBP, CLK2, CLK4, USP2, GBA, RECQL, BLM, WRN, CDK2, PRKAG3, TFPI, LTA4H, DPP7, BACE2, BACE1, CAPN1, CTSB, IGF1R, INSR, EYA2, HSPA5, NFKB1, TCF7L2, TARDBP, BRD4. • 13. […] Lifespan assays were conducted at 20° C., as described previously. Briefly, synchronous cultures were initiated by lysis of gravid hermaphrodites in alkaline hypochlorite. Worms were selected at the L4 larval stage, placed 50 worms per plate, and transferred at 1- to 2-day intervals onto fresh plates during days 1-7, and at 2- to 3-day intervals after that. […]

[1] = patient; cited from earlier work
mice given Doxorubicin = assay: Example 33: doxorubicin-induced liver damage (plasma AST); settings: mouse, in vivo
Experimental: Doxorubicin if administered by mice reduces total body weight and induces expression of FOXO4 foci and IL-6 in the liver.
On the indicated time points, whole blood samples are collected in a Microvette with Lithium Heparin (Sarstedt) for plasma separation and spun for 10 min at 4.6×g. The (clear) supernatant is transferred into regular 1.5 ml tubes and spun again for 5 min at 4.6×g. The supernatants are transferred again into 1.5 ml tubes, snap frozen in liquid N2 and stored at −80° C. [AST] is measured using an AST Activity Assay Kit (Sigma). The samples are incubated with 100 μl reaction mix in a 96 well plate and place at 37° C. The absorbance at 450 nm is determined after 2 minutes for baseline analysis and after 40 minutes for a final analysis. [Urea] is measured using a QuantiChrom Urea Assay Kit (Gentaur). The samples are incubated in 200 μl reaction mix for 10 minutes at room temperature before absorbance is measured at 520 nm. [Creatinine] is measured using Creatinine Assay Kit (Sigma). Samples are incubated with 50 μl reaction mix at 37° C. for 60 minutes and the absorbance is measured at 570 nm. Ratios comparing plasma values after treatment compared to baseline are determined and plotted as % over baseline in scatter plots.

CIA-induced DBA/1J mice = assay: Example 30: collagen-induced arthritis (CIA); format: in vivo; settings: 0.2 mg/kg
D. melanogaster = settings: cited from earlier work
Caenorhabditis elegans = settings: not replicated in another study; cited from earlier work

Row | SMILES | Mean LS ext., % (C. elegans) | Mean LS* (C. elegans) | further results
1 | Cc1[nH]c2ccccc2c1CCNCc1ccc(/C=C/C(=O)NO)cc1 [Compound 1, Panobinostat] | 8.1% | 24 days | –
2 | Nc1ccccc1NC(=O)c1ccc(CNC(=O)OCc2cccnc2)cc1 [Compound 2, Entinostat] | 8.6% | 24.1 days | –
3 | CC[C@@]1(O)C(=O)OCc2c1cc1n(c2=O)Cc2cc3c(CN(C)C)c(O)ccc3nc2-1 [Compound 3, Topotecan] | 9.7% | 24.3 days | –
4 | Oc1cccc(-c2nc(N3CCOCC3)c3oc4ncccc4c3n2)c1 [Compound 4, PI-103] | 8.6% | 24.1 days | –
5 | CC(C)CC(=O)Nc1[nH]nc2c1CN(C(=O)C1CCN(C)CC1)C2(C)C [Compound 5, PHA-793887] | 6.9% | 23.7 days | –
6 | CC(C)[C@]12O[C@H]1[C@@H]1O[C@]13[C@]1(O[C@H]1C[C@H]1C4=C(CC[C@@]13C)C(=O)OC4)[C@@H]2O [Compound 6, Triptolide] | 10% | 24.4 days | –
7 | COc1ccc(-c2ccc3c(N4CCOCC4)nc(N4C[C@@H](C)O[C@@H](C)C4)nc3n2)cc1CO [Compound 7, KU-0063794] | 10.6% | 24.5 days | –
8 | CC(/C=C/C(=O)NO)=C\[C@@H](C)C(=O)c1ccc(N(C)C)cc1 [Compound 8, Trichostatin A] | 10% | 24.4 days | –
9 | COc1cccc2c1C(=O)c1c(O)c3c(c(O)c1C2=O)C[C@@](O)(C(=O)CO)C[C@@H]3O[C@H]1C[C@H](N)[C@H](O)[C@H](C)O1 [Doxorubicin] | – | – | total lifetime dose above which myocardial damage may lead to congestive heart failure [1]: exceeds 550 mg/m^2; plasma levels of Aspartate Aminotransferase, AST (mice given Doxorubicin): strongly induce plasma levels of Aspartate Aminotransferase
10 | CN(Cc1cnc2nc(N)nc(N)c2n1)c1ccc(C(=O)N[C@@H](CCC(=O)O)C(=O)O)cc1 [MTX, methotrexate] | – | – | development of arthritis (CIA-induced DBA/1J mice): strong inhibitory effect on the development of arthritis
11 | O=C(c1ccc(F)cc1)C1CCN(CCn2c(=O)[nH]c3ccccc3c2=O)CC1 [ketanserin] | – | – | lifespan (D. melanogaster; fixed-diet conditions): did not affect lifespan; lifespan (D. melanogaster; flies allowed to chose nutrients): increased lifespan
12 | CN1CCN2c3ccccc3Cc3ccccc3C2C1 (stereo not shown) [mianserin] | – | – | lifespan (prolongevity effect) (Caenorhabditis elegans): prolongevity effect
